Series [1] concerns rat articular chondrocytes (rArCs). Put plainly: WNT/β-catenin agonist or antagonist treatment of rArCs with or without IL-1β. The series is classed as cell-based.
The next series has as its system WNT/β-catenin. Conditions: literature; cited from earlier work.
The next series relates to articular chondrocytes. Nature of the series: miR-122 / miR-451 transfection of articular chondrocytes in presence and absence of IL-1β. The series is classed as cell-based, rat. From the text:
The following Examples with these microRNAs established their functions in articular chondrocytes in the presence and absence of the inflammatory cytokine IL-1β. Since IL-1β signaling is a major contributor of OA, a well-established model of creating an osteoarthritic phenotype in vitro is to stimulate cell cultures with this cytokine. This study first established that both these microRNAs were elevated in OA in the bilateral ACLT model.
The miR-451 miR (SEQ ID NO:10) was originally chosen as a control miR but it had surprising and very specific functions. […] A series of transfections and inhibition experiments with these microRNAs confirmed that these changes were due to the microRNAs themselves.

Series [2] has as its system rat articular chondrocytes (rArCs). Nature of the series: miR mimic or inhibitor transfection of rArCs with or without TNF-α stimulation. The series is classed as cell-based. On the procedure: FIGS. 7A-7F show assessment of miR-122 and miR-451 transfection or inhibition on TNF-α stimulated rat articular chondrocytes. rArCs were transfected at 60% confluence with miR-122, miR-451, miR-122-inhibitor (122-Inh), miR-451 inhibitor (451-Inh), or an empty vehicle (Lipo) for 24 hours followed by 24 hours with or without 10 ng/mL TNF-α stimulation. (FIG. 7A, 7D) Total DNA was measured from the cell monolayer and (FIG. 7B, 7E) MMP-13 and (FIG. 7C, 7F) PGE2 proteins were measured from the conditioned media. Groups not sharing a letter (A, B or C over bar) are statistically significant using an alpha=0.05.
Rat articular chondrocytes (rArCs) were isolated using a previously established protocol (see Scott, supra). Briefly, rArCs were isolated from femoral condyles and tibial plateaus from 100-125 g male Sprague Dawley rats. Cartilage was sterilely sliced from the articular surfaces using a surgical blade and placed in Dulbecco's modification of Eagle's medium with 1 g/L glucose, 50 U/mL penicillin and streptomycin (pen-strep) (DMEM). After removing DMEM, cartilage was incubated with 0.05% trypsin (20 mins, 37° C.), rinsed with DMEM (50 U/mL pen-strep, 20 mins, 37° C.), and then digested with sterile-filtered 0.03% collagenase type II solution (Worthington Biochemical, Lakewood, NJ) in Hank's balanced salt solution (16 hrs, 37° C.). Digestion was quenched with an equal volume of DMEM containing 10% fetal bovine serum (FBS) and 50 U/mL pen-strep, strained through a 40 μm strainer (Greiner Bio-one, North Carolina), spun down at 500×g for 10 mins and plated at a seeding density of 15,000 cells/cm^2. These cells are at passage 0. All experiments used cells at passage 1.
rArCs were plated at a seeding density of 15,000 cells/cm^2 and fed with DMEM supplemented with 10% FBS and 50 U/mL pen-strep. Media were changed 24 hours after plating and then every 48 hours. After treatments described below, conditioned media were collected, centrifuged at 1,000×g for 10 mins to remove cellular debris, aliquoted, and stored at −80° C. until assayed. Cell monolayers were rinsed twice with 1 mL of 1×PBS, lysed in 500 μL of 0.05% Triton X-100, and frozen for later DNA analysis. MMP-13 (ANASpec, Fremont, CA) and PGE2 (R&D Systems) were measured in the conditioned media by a microplate reader at ex/em 490 nm/520 nm, and 450 nm absorbance, respectively, in accordance with the manufacturer's directions. Data were normalized to the DNA content of the cell monolayer. Cell layers were thawed, and mechanically lysed by ultrasonication (40V, 10s/well) (VCX-120; Vibra-cell, Newtown, CT) and DNA was measured using QuantiFluor dsDNE system kit (Promega, Madson, WI) and quantified on a fluorescence plate reader at ex/em 504 nm/531 nm. […]

Series [3] shares this test system. Nature of the series: Stimulation of rArCs with IL-1β or TNF-α (total DNA, MMP-13, PGE2). The series is classed as cell-based. As to conditions: 10 ng/mL IL-1β or 5 and 10 ng/mL TNF-α, 24 hours, vs control. As for the experimental part:
FIGS. […] (FIG. 6A) Total DNA was measured from the cell monolayer and (FIG. 6B) MMP-13, and (FIG. 6C) PGE2 proteins were measured from the conditioned media. Groups not sharing a letter (D, C, B or A over bar) are statistically significant using an alpha=0.05.
Rat articular chondrocytes (rArCs) were isolated using a previously established protocol (see Scott, supra). Briefly, rArCs were isolated from femoral condyles and tibial plateaus from 100-125 g male Sprague Dawley rats. Cartilage was sterilely sliced from the articular surfaces using a surgical blade and placed in Dulbecco's modification of Eagle's medium with 1 g/L glucose, 50 U/mL penicillin and streptomycin (pen-strep) (DMEM). […]
rArCs were plated at a seeding density of 15,000 cells/cm^2 and fed with DMEM supplemented with 10% FBS and 50 U/mL pen-strep. […] MMP-13 (ANASpec, Fremont, CA) and PGE2 (R&D Systems) were measured in the conditioned media by a microplate reader at ex/em 490 nm/520 nm, and 450 nm absorbance, respectively, in accordance with the manufacturer's directions. […] Cell layers were thawed, and mechanically lysed by ultrasonication (40V, 10s/well) (VCX-120; Vibra-cell, Newtown, CT) and DNA was measured using QuantiFluor dsDNE system kit (Promega, Madson, WI) and quantified on a fluorescence plate reader at ex/em 504 nm/531 nm. […]

The test system is the same in series [4]. Nature of the series: WNT/β-catenin agonist or antagonist treatment of rArCs with or without TNF-α. The series is classed as cell-based.
The mark [5] stands for this setting: miR transfection of articular chondrocytes.
Where [6] appears, read: miR transfection plus IL-1β stimulation.

Entries after “also recorded” stand apart in the source; their conditions may differ.

Consider `Cn1ncnc2c(=O)n(C)c(=O)nc1-2` [PKF, PKF-118-310], for which, in series [1], the “total DNA” value is recorded as “drastically decreased total DNA”. In the series with WNT/β-catenin, the “IL-1β and TNF-α induced cartilage degradation” value is “block IL-1β and TNF-α induced cartilage degradation”.

With “miR-122: mirVana miRNA mimic rno-miR-122-5p; UGGAGUGUGACAAUGGUGUUUG (UGGAGUGUGACAAUGGUGUUUG; listed as RNA, chemistry not given here)”, in the series on articular chondrocytes (setting [5]), the proliferation result is listed as “stimulated proliferation” and the “total DNA” value is on record as “increased total DNA”. In the series with articular chondrocytes (setting [6]), the “IL-1β-stimulated MMP-13” value is “able to prevent the IL-1β-stimulated increase”; the “IL-1β-stimulated PGE2” value is listed as “able to prevent the IL-1β-stimulated increase”; the “growth factor VEGF” value is “prevented IL-1β-stimulated increase”; the “inflammatory mediators, cytokines, chemokines (IL-1α, IL-2, IL-4, IL-6, GM-CSF, MIP-1A; RANTES for miR-122)” value was “prevented IL-1β-stimulated increase”. In series [2] (14.5 nM mimic 24 hours, then 10 ng/mL TNF-α 24 hours), the “change of total DNA on TNF-α treatment in transfected cells” value is “modestly decreased total DNA”. The “total DNA after mimic transfection” value in series [2] (14.5 nM mimic, 24 hours, vs Lipo control) was “increased total DNA”.

TNF-α: the “total DNA of cell monolayer” value in series [3] is recorded as “no differences in DNA”.

For `[Cl-].[Li+]` [LiCl, lithium chloride], the “total DNA” value in series [1] is listed as “decreased total DNA”; in series [4], “decreased total DNA to similar levels; also recorded: marginally decreased this”.

As for PKF115-584, the “IL-1β and TNF-α induced cartilage degradation” value in the series with WNT/β-catenin was “block IL-1β and TNF-α induced cartilage degradation”.

As for “IL-1β: inflammatory cytokine (Peprotech) used to stimulate chondrocyte cultures”, the “total DNA of cell monolayer” value in series [3] was “no differences in DNA”.

Source of the values: patent US20230407304A1, “USE OF MICRORNA INHIBITION TO PREVENT AND TREAT OSTEOARTHRITIS AND OTHER INFLAMMATORY DISEASES” (VIRGINIA COMMONWEALTH UNIVERSITY, priority 2020, published 2023).
